From US9730914B2, “3,5-diaminopyrazole kinase inhibitors” (Axikin Pharmaceuticals, Inc., priority 2014, dated 2017) come the findings set out here.

SMILES strings stand for the structures. Bounds are passed on as bounds.

Experiment [1] concerns the target T1, JAK3 (Homo sapiens, UniProt P52333).
T1 construct: made in house; host or cells: E. coli BL21-derived host (T7 phage) or HEK-293
Briefly: Kinase competition binding assay (Kd, qPCR readout), JAK3. The conditions noted are these: for Kd: Kd class, JAK3, read-out: JAK3 Activity Level; for RCK:JAK3 selectivity ratio: ratio Kd (JAK3): Kd (RCK). Summed up: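 Kd values were derived from 11-point, 3-fold compound series at 1% DMSO, usually topping at 30,000 nM, with retesting from a lower top when under 0.5 nM. It competed with bead-immobilized ligand for 1 h at room temperature, and the captured kinase was measured by qPCR after elution.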
In general terms: Quantitative PCR measures a nucleic acid by following its amplification.

Experiment [2] deals with T2, kinase domain protein of RC kinase (RCK) (Homo sapiens, UniProt Q56UN5).
T2 construct: made in house; host or cells: E. coli BL21-derived host (T7 phage) or HEK-293
T2 sequence (Q56UN5 1061-1324 limits assumed): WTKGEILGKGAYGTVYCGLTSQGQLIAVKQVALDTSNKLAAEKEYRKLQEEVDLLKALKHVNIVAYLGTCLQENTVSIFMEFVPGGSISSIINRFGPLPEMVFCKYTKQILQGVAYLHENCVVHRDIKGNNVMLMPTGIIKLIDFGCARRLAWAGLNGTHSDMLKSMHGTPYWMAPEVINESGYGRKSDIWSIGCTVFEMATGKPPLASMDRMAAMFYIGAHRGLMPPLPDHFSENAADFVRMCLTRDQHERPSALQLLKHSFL
Briefly: Kinase competition binding assay (Kd, qPCR readout), RC kinase. The conditions noted are these: Kd class, read-out: RCK Activity Level. Summed up:
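Competition binding: DNA-tagged kinase (T7 phage or HEK-293-expressed) plus immobilized biotinylated ligand beads and compound, 1 h at room temperature, 1% DMSO. Bead-bound kinase eluted and quantified by qPCR. Kd from 11-point 3-fold dilution, top 30,000 nM, retested lower if below 0.5 nM.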

The target in experiment [3] is T3, JAK2 (Homo sapiens, UniProt O60674).
T3 construct: made in house; host or cells: E. coli BL21-derived host (T7 phage) or HEK-293
T3 sequence (O60674 840-1132 limits assumed): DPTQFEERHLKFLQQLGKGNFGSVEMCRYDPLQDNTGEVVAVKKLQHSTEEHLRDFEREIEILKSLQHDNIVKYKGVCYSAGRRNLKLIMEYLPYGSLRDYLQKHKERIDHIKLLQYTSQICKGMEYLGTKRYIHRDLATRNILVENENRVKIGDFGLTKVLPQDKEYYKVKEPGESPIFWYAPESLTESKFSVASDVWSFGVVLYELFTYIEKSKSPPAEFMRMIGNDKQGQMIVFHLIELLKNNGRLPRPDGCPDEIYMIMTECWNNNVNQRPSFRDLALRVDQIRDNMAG
Put plainly: Kinase competition binding assay (Kd, qPCR readout), JAK2. To be noted: for Kd: Kd class, JAK2, read-out: JAK2 Activity Level; for RCK:JAK2 selectivity ratio: ratio Kd (JAK2): Kd(RCK). Summed up: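 Competition binding: DNA-tagged kinase (T7 phage or HEK-293-expressed), immobilized biotinylated ligand beads and compound in SeaBlock/PBS/Tween/DTT buffer, 1 hour at room temperature; bound kinase eluted and quantified by qPCR. Kd from 11-point 3-fold dilution, top 30,000 nM typically, final DMSO 1%.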

T1 sequence (P52333 811-1124 limits assumed): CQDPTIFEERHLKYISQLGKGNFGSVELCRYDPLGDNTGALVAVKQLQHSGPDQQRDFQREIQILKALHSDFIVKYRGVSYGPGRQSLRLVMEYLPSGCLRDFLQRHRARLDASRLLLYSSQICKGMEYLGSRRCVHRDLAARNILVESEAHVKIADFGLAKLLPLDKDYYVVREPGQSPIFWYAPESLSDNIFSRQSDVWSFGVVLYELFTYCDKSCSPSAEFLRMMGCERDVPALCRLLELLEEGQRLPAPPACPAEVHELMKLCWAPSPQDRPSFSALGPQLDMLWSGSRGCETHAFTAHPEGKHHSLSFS

Take `Cc1cc(CNc2[nH]nc(Nc3ccc(N4CCC(C(C)C)CC4)cc3)c2C(N)=O)cc(C)c1O` [Compound 58, 5-((4-hydroxy-3,5-dimethylbenzyl)amino)-3-((4-(4-isopropylpiperidin-1-yl)phenyl)amino)-1H-pyrazole-4-carboxamide]: in experiment [1], the Kd was greater than 1000 nM and the “RCK:JAK3 selectivity ratio” value is recorded as “B (B represents 10<Kd (JAK3): Kd (RCK)<100)”. Moreover, the Kd in experiment [2] fell in the range of 100 to 1000 nM. In addition, in experiment [3], the Kd is greater than 1000 nM and the “RCK:JAK2 selectivity ratio” value is on record as “B (B represents 10<Kd(JAK2): Kd (RCK)<100)”.

Regarding `Cc1cc(CNc2[nH]nc(Nc3ccc(N4CCOCC4=O)cc3)c2C(N)=O)cc(C)c1O` [Compound 59, 5-((4-hydroxy-3,5-dimethylbenzyl)amino)-3-((4-(3-oxomorpholino)phenyl)amino)-1H-pyrazole-4-carboxamide], in experiment [1], the Kd was greater than 1000 nM and the “RCK:JAK3 selectivity ratio” value was “B (B represents 10<Kd (JAK3): Kd (RCK)<100)”. Further, the Kd in experiment [2] lay within 100 to 1000 nM. For the same compound, in experiment [3], the Kd was greater than 1000 nM and the “RCK:JAK2 selectivity ratio” value is “B (B represents 10<Kd(JAK2): Kd (RCK)<100)”.

In the case of `Cc1cc(CNc2[nH]nc(Nc3ccc(CC#N)cc3)c2C(N)=O)cc(C)c1O` [Compound 61, 3-((4-(cyanomethyl)phenyl)amino)-5-((4-hydroxy-3,5-dimethylbenzyl)amino)-1H-pyrazole-4-carboxamide], in experiment [1], the Kd is greater than 1000 nM and the “RCK:JAK3 selectivity ratio” value was “C (C represents 1<Kd (JAK3): Kd (RCK)<10)”. Also, in experiment [2], the Kd was greater than 1000 nM. In addition, in experiment [3], the Kd was greater than 1000 nM and the “RCK:JAK2 selectivity ratio” value was “C (C represents 1<Kd (JAK2): Kd (RCK)<10)”.

As for `Cc1cc(CNc2[nH]nc(Nc3ccc(NC(=O)c4ccc(C(F)(F)F)cc4)cc3)c2C(N)=O)cc(C)c1O` [Compound 62, 5-((4-hydroxy-3,5-dimethylbenzyl)amino)-3-((4-(4-(trifluoromethyl)benzamido)phenyl)amino)-1H-pyrazole-4-carboxamide], in experiment [1], the Kd is greater than 1000 nM and the “RCK:JAK3 selectivity ratio” value is “B (B represents 10<Kd (JAK3): Kd (RCK)<100)”. For the same compound, the Kd in experiment [2] fell in the range of 100 to 1000 nM. Further, in experiment [3], the Kd was greater than 1000 nM and the “RCK:JAK2 selectivity ratio” value is on record as “B (B represents 10<Kd(JAK2): Kd (RCK)<100)”.

As for `Cc1cc(CNc2[nH]nc(Nc3ccc(N4CCC(C)CC4)cc3)c2C(N)=O)cc(C)c1O` [Compound 63, 5-((4-hydroxy-3,5-dimethylbenzyl)amino)-3-((4-(4-methylpiperidin-1-yl)phenyl)amino)-1H-pyrazole-4-carboxamide], in experiment [1], the Kd was greater than 1000 nM and the “RCK:JAK3 selectivity ratio” value is “B (B represents 10<Kd (JAK3): Kd (RCK)<100)”. Moreover, the Kd in experiment [2] fell in the range of 100 to 1000 nM. In experiment [3], the Kd is greater than 1000 nM and the “RCK:JAK2 selectivity ratio” value is recorded as “B (B represents 10<Kd(JAK2): Kd (RCK)<100)”.

`Cc1cc(CNc2[nH]nc(Nc3ccc(-n4ccnc4)cc3)c2C(N)=O)cc(C)c1O` [drawing 179, reference compound]: the Kd in experiment [1], in experiment [2] and in experiment [3] was less than 50 nM throughout.

As to `COc1ccc(Nc2n[nH]c(NCc3cc(C)c(O)c(C)c3)c2C(N)=O)cc1` [drawing 180, reference compound], the Kd in experiment [1], in experiment [2] and in experiment [3] was less than 50 nM in each case.

Turning to `Cc1cc(CNc2[nH]nc(Nc3cccc(Cl)c3)c2C(N)=O)cc(C)c1O` [reference compound], in experiment [1], the Kd was greater than 1000 nM and the “RCK:JAK3 selectivity ratio” value was “C (C represents 1<Kd (JAK3): Kd (RCK)<10)”. Moreover, the Kd in experiment [2] is greater than 1000 nM. Also, in experiment [3], the Kd is greater than 1000 nM and the “RCK:JAK2 selectivity ratio” value is “C (C represents 1<Kd (JAK2): Kd (RCK)<10)”.

As for `NC(=O)c1c(Nc2ccc(N3CCOCC3)cc2)n[nH]c1NCc1ccc(O)cc1` [reference compound], the Kd in experiment [1], in experiment [2] and in experiment [3] was less than 50 nM each time. For the same compound, the “RCK:JAK3 selectivity ratio” value in experiment [1] is “C (C represents 1<Kd (JAK3): Kd (RCK)<10)”. In addition, in experiment [3], the “RCK:JAK2 selectivity ratio” value was “D (D represents Kd(JAK2): Kd (RCK)<1)”.

In the case of `NC(=O)c1c(Nc2ccc(S(N)(=O)=O)cc2)n[nH]c1NCc1ccc(O)cc1` [reference compound], in experiment [1], the Kd was less than 50 nM and the “RCK:JAK3 selectivity ratio” value is on record as “D (D represents Kd (JAK3): Kd(RCK)<1)”. In experiment [2], the Kd is less than 50 nM. Further, in experiment [3], the Kd is less than 50 nM and the “RCK:JAK2 selectivity ratio” value is listed as “D (D represents Kd(JAK2): Kd (RCK)<1)”.

For `NC(=O)c1c(Nc2ccc(N3CCC(N4CCCC4)CC3)nc2)n[nH]c1NCc1ccc(O)cc1` [reference compound], in experiment [1], the Kd was less than 50 nM and the “RCK:JAK3 selectivity ratio” value is given as “C (C represents 1<Kd (JAK3): Kd (RCK)<10)”. Further, the Kd in experiment [2] was less than 50 nM. Further, in experiment [3], the Kd is less than 50 nM and the “RCK:JAK2 selectivity ratio” value was “D (D represents Kd(JAK2): Kd (RCK)<1)”.

For `CN(C)c1ccc(Nc2n[nH]c(NCc3ccc(O)cc3)c2C(N)=O)cc1` [reference compound], in experiment [1], the Kd is 100 to 1000 nM and the “RCK:JAK3 selectivity ratio” value is “C (C represents 1<Kd (JAK3): Kd (RCK)<10)”. The Kd in experiment [2] lay within 100 to 1000 nM. In experiment [3], the Kd was less than 50 nM and the “RCK:JAK2 selectivity ratio” value was “D (D represents Kd(JAK2): Kd (RCK)<1)”.

As for `NC(=O)c1c(Nc2ccc(CN3CCOCC3)cc2)n[nH]c1NCc1ccc(O)cc1` [reference compound], the Kd in experiment [1], in experiment [2] and in experiment [3] was less than 50 nM in each case. Besides, in experiment [1], the “RCK:JAK3 selectivity ratio” value was “D (D represents Kd (JAK3): Kd(RCK)<1)”. Also, the “RCK:JAK2 selectivity ratio” value in experiment [3] was “D (D represents Kd(JAK2): Kd (RCK)<1)”.

Take `COc1cccc(Nc2n[nH]c(NCc3ccc(O)cc3)c2C(N)=O)c1` [reference compound]: in experiment [1], the Kd is less than 50 nM and the “RCK:JAK3 selectivity ratio” value is “D (D represents Kd (JAK3): Kd(RCK)<1)”. Moreover, the Kd in experiment [2] was less than 50 nM. Further, in experiment [3], the Kd is less than 50 nM and the “RCK:JAK2 selectivity ratio” value was “D (D represents Kd(JAK2): Kd (RCK)<1)”.

On to `NC(=O)c1c(Nc2ccc(NC(=O)c3ccc(F)cc3)cc2)n[nH]c1NCc1ccc(O)cc1` [reference compound], for which, in experiment [1], the Kd was less than 50 nM and the “RCK:JAK3 selectivity ratio” value is recorded as “C (C represents 1<Kd (JAK3): Kd (RCK)<10)”. In experiment [2], the Kd is less than 50 nM. For the same compound, in experiment [3], the Kd was less than 50 nM and the “RCK:JAK2 selectivity ratio” value is given as “C (C represents 1<Kd (JAK2): Kd (RCK)<10)”.

Turning to `NC(=O)c1c(Nc2ccc(-c3cc[nH]n3)cc2)n[nH]c1NCc1ccc(O)cc1` [reference compound], in experiment [1], the Kd is less than 50 nM and the “RCK:JAK3 selectivity ratio” value is reported as “C (C represents 1<Kd (JAK3): Kd (RCK)<10)”. Besides, the Kd in experiment [2] is less than 50 nM. In addition, in experiment [3], the Kd is less than 50 nM and the “RCK:JAK2 selectivity ratio” value is on record as “D (D represents Kd(JAK2): Kd (RCK)<1)”.

Take `COc1ccccc1C(=O)Nc1ccc(Nc2n[nH]c(NCc3ccc(O)cc3)c2C(N)=O)cc1` [reference compound]: in experiment [1], the Kd is less than 50 nM and the “RCK:JAK3 selectivity ratio” value is reported as “B (B represents 10<Kd (JAK3): Kd (RCK)<100)”. In experiment [2], the Kd was less than 50 nM. Moreover, in experiment [3], the Kd was less than 50 nM and the “RCK:JAK2 selectivity ratio” value is given as “B (B represents 10<Kd(JAK2): Kd (RCK)<100)”.

In the case of `COc1cccc(C(=O)Nc2ccc(Nc3n[nH]c(NCc4ccc(O)cc4)c3C(N)=O)cc2)c1` [reference compound], in experiment [1], the Kd was less than 50 nM and the “RCK:JAK3 selectivity ratio” value was “B (B represents 10<Kd (JAK3): Kd (RCK)<100)”. Also, in experiment [2], the Kd was less than 50 nM. In addition, in experiment [3], the Kd was less than 50 nM and the “RCK:JAK2 selectivity ratio” value is “C (C represents 1<Kd (JAK2): Kd (RCK)<10)”.

Turning to `COc1ccc(C(=O)Nc2ccc(Nc3n[nH]c(NCc4ccc(O)cc4)c3C(N)=O)cc2)cc1` [reference compound], the Kd in experiment [1], in experiment [2] and in experiment [3] was less than 50 nM each time. Moreover, the “RCK:JAK3 selectivity ratio” value in experiment [1] is “B (B represents 10<Kd (JAK3): Kd (RCK)<100)”. The “RCK:JAK2 selectivity ratio” value in experiment [3] is reported as “B (B represents 10<Kd(JAK2): Kd (RCK)<100)”.

On to `CC(C)C1CCN(c2ccc(Nc3n[nH]c(NCc4ccc(O)cc4)c3C(N)=O)cc2)CC1` [reference compound], for which, in experiment [1], the Kd was 100 to 1000 nM and the “RCK:JAK3 selectivity ratio” value is recorded as “C (C represents 1<Kd (JAK3): Kd (RCK)<10)”. Also, in experiment [2], the Kd was 50 to 100 nM. Besides, in experiment [3], the Kd was 100 to 1000 nM and the “RCK:JAK2 selectivity ratio” value is recorded as “C (C represents 1<Kd (JAK2): Kd (RCK)<10)”.

Turning to `NC(=O)c1c(Nc2ccc(N3CCOCC3=O)cc2)n[nH]c1NCc1ccc(O)cc1` [reference compound], the Kd in experiment [1], in experiment [2] and in experiment [3] was less than 50 nM in each case. In addition, in experiment [1], the “RCK:JAK3 selectivity ratio” value is on record as “C (C represents 1<Kd (JAK3): Kd (RCK)<10)”. Also, the “RCK:JAK2 selectivity ratio” value in experiment [3] is on record as “D (D represents Kd(JAK2): Kd (RCK)<1)”.
